The values below come from DBAASP.

Each structure is given as a SMILES string. Values after ≈ are worked out from the molar mass of the structure shown. Values joined by “and” are separate entries in the source; they are usually repeats but may differ in a detail not shown here. Equal entries are not always repeated.

Assay in all cases: ≥ marks a high value that may be exact or a test limit, other limits are often not marked, values filed in µg/mL are converted to µM
For assay [1], the system named is Achromobacter xylosoxidans.
In assay [2] the test system is Candida albicans.
Assay [3] concerns Escherichia coli UB1005.
Assay [4] has as its system Pseudomonas aeruginosa ATCC 9027.
The subject of assay [5] is Pseudomonas aeruginosa M1251.
For assay [6], the system named is Pseudomonas aeruginosa M1426.
The subject of assay [7] is Pseudomonas aeruginosa M76.
For assay [8], the system named is Pseudomonas aeruginosa M917.
For assay [9], the system named is Pseudomonas aeruginosa R70.
Assay [10] relates to Pseudomonas aeruginosa.
For assay [11], the system named is Pseudomonas fluorescens.
Assay [12] relates to Salmonella enterica serovar Typhimurium.
The test system of assay [13] is Staphylococcus aureus ATCC 6538.
Assay [14] has as its system Staphylococcus aureus.
Assay [15] has as its system Stenotrophomonas maltophilia.
Assay [16] has as its system Aeromonas hydrophila.
The test system of assay [17] is Escherichia coli MG1655.
The test system of assay [18] is Vibrio harveyi.
The test system of assay [19] is Candida albicans ATCC 200955.
Assay [20] relates to Candida albicans ATCC 36232.
For assay [21], the system named is Candida glabrata.
Assay [22] relates to Candida krusei ATCC 200917.
In assay [23] the test system is Candida krusei ATCC 90878.
Assay [24] deals with Candida tropicalis.
The subject of assay [25] is Cryptococcus neoformans.
In assay [26] the test system is Escherichia coli ATCC 2592.
Assay [27] deals with Micrococcus luteus ATCC 9341.
Assay [28] relates to Bacillus subtilis C971.
Assay [29] relates to Corynebacterium xerosis C875.
Assay [30] concerns Enterococcus faecalis C625.
Assay [31] has as its system Escherichia coli ATCC 25922.
In assay [32] the test system is Escherichia coli DC2.
Assay [33] relates to Klebsiella pneumoniae ATCC 700603.
In assay [34] the test system is Pseudomonas aeruginosa ATCC 27853.
Assay [35] relates to Pseudomonas aeruginosa H187.
In assay [36] the test system is Pseudomonas aeruginosa H188.
Assay [37] concerns Salmonella typhimurium C587.
Assay [38] concerns Salmonella typhimurium C610.
Assay [39] relates to Staphylococcus aureus ATCC 25923.
Assay [40] relates to Staphylococcus aureus SAP 0017.
Assay [41] has as its system Staphylococcus epidermidis ATCC 12228.
Assay [42] deals with Staphylococcus epidermidis C621.
Assay [43] deals with Streptococcus pneumoniae ATCC 49619.
For assay [44], the system named is Acinetobacter baumannii ATCC 19606.
For assay [45], the system named is Escherichia coli BW25113 ΔsbmA.
Assay [46] relates to Escherichia coli BW25113.

Regarding `CC(C)C[C@H](NC(=O)[C@H](CC(C)C)NC(=O)[C@H](CCCCN)NC(=O)[C@H](CCCCN)NC(=O)[C@H](C)NC(=O)[C@H](CC(C)C)NC(=O)[C@H](CCCCN)NC(=O)[C@H](C)NC(=O)[C@H](CC(C)C)NC(=O)[C@H](CC(C)C)NC(=O)[C@H](CCCCN)NC(=O)[C@H](C)NC(=O)[C@@H](N)Cc1ccccc1)C(N)=O` [FAKLLAKLAKKLL], the MIC in assay [1] was at least 43.9 µM; in assay [2], 5.49 µM (≈ 7.99 µg/mL); in assay [3] it was 2.75 µM (≈ 4 µg/mL); in [4] it was 68.6 µM (≈ 99.9 µg/mL); in assay [5] it was 2.75 µM (≈ 4 µg/mL); in assay [6], 5.49 µM (≈ 7.99 µg/mL). Also, the MIC amounted to 2.75 µM (≈ 4 µg/mL) in assay [7]; 11 µM (≈ 16 µg/mL) in assay [8]; 2.75 µM (≈ 4 µg/mL) in [9]; 5.49 µM (≈ 7.99 µg/mL) in assay [10]; 5.49 µM (≈ 7.99 µg/mL) in assay [11]; 2.75 µM (≈ 4 µg/mL) in [12]. Further, the MIC came to 3.43 µM (≈ 5 µg/mL) in assay [13], 2.75 µM (≈ 4 µg/mL) in assay [14] and 1.37 µM (≈ 2 µg/mL) in assay [15].
On to `CC[C@H](C)[C@H](NC(=O)[C@H](C)NC(=O)[C@H](CCCN=C(N)N)NC(=O)[C@H](Cc1cnc[nH]1)NC(=O)[C@@H](NC(=O)[C@H](C)NC(=O)[C@H](CCCN=C(N)N)NC(=O)[C@@H](NC(=O)CNC(=O)[C@H](Cc1cnc[nH]1)NC(=O)[C@H](CO)NC(=O)[C@@H](NC(=O)[C@H](Cc1c[nH]c2ccccc12)NC(=O)CNC(=O)[C@@H](NC(=O)[C@@H](NC(=O)[C@H](Cc1cnc[nH]1)NC(=O)[C@H](C)NC(=O)[C@@H](NC(=O)[C@@H](N)Cc1ccccc1)[C@@H](C)CC)[C@@H](C)CC)[C@@H](C)CC)[C@@H](C)CC)C(C)C)[C@@H](C)CC)C(=O)N[C@@H](Cc1cnc[nH]1)C(N)=O` [FIAHIIGWISHGVRAIHRAIH], for which the MIC in assay [16] was at least 128 µM; in [17], 16 µM and ≥ 32 µM; in [18], at least 32 µM.
For `CC(C)[C@H](NC(=O)[C@H](CCCCN)NC(=O)[C@H](Cc1ccccc1)NC(=O)[C@@H](NC(=O)[C@@H](NC(=O)[C@H](CCCCN)NC(=O)[C@@H](N)CCCCN)C(C)C)C(C)C)C(=O)N[C@@H](CCCCN)C(=O)N[C@@H](Cc1ccccc1)C(=O)N[C@@H](CCCCN)C(=O)N[C@@H](CCCCN)C(N)=O` [KKVVFKVKFKK], the MIC is 3.2 µM (≈ 4.41 µg/mL) in [19]; 2.27 µM and 3.21 µM and 4.53 µM in assay [20]; 5.8 µM (≈ 7.99 µg/mL) in assay [2]; 23.2 µM (≈ 32 µg/mL) in assay [21]; 1.6 µM (≈ 2.2 µg/mL) in assay [22]; 1.6 µM (≈ 2.2 µg/mL) in assay [23]. Moreover, the minimum inhibitory concentration (MIC) in [24] was determined as 2.9 µM (≈ 4 µg/mL); in [25], 2.9 µM (≈ 4 µg/mL); in assay [26], 7.98 µM (≈ 11 µg/mL); in assay [27], 2.27 µM (≈ 3.13 µg/mL); in [4] it was 4.35 µM (≈ 6 µg/mL); in [13], 2.27 µM (≈ 3.13 µg/mL).
As for `CC[C@H](C)[C@H](NC(=O)[C@H](C)NC(=O)[C@H](CCCCN)NC(=O)[C@H](CC(C)C)NC(=O)[C@H](C)NC(=O)[C@@H](NC(=O)[C@H](Cc1cnc[nH]1)NC(=O)[C@H](CC(C)C)NC(=O)[C@@H](NC(=O)[C@@H](NC(=O)[C@H](CCCCN)NC(=O)[C@H](C)NC(=O)[C@H](C)NC(=O)[C@H](CO)NC(=O)[C@H](CCCCN)NC(=O)[C@H](Cc1ccccc1)NC(=O)[C@@H](NC(=O)[C@H](CCCCN)NC(=O)[C@H](CC(C)C)NC(=O)[C@H](Cc1ccccc1)NC(=O)[C@H](CO)NC(=O)[C@H](CCCCN)NC(=O)[C@H](Cc1c[nH]c2ccccc12)NC(=O)[C@H](CCCCN)NC(C)=O)[C@@H](C)O)[C@@H](C)O)C(C)C)[C@@H](C)O)C(=O)N[C@@H](CO)C(=O)N[C@@H](CO)C(N)=O` [KWKSFLKTFKSAAKTVLHTALKAISS], the MIC in assay [28] worked out at 0.692 µM (≈ 2.03 µg/mL); in assay [29] it was 0.692 µM (≈ 2.03 µg/mL); in assay [30] it was 5.53 µM (≈ 16.2 µg/mL); in assay [31], 2.83 µM (≈ 8.3 µg/mL); in assay [32], 0.864 µM (≈ 2.54 µg/mL); in [3], 0.864 µM (≈ 2.54 µg/mL). In addition, the MIC in assay [33] was determined as 4 µM (≈ 11.7 µg/mL); in assay [34] it was 8 µM (≈ 23.5 µg/mL); in [35], 1.73 µM (≈ 5.07 µg/mL); in assay [36] it was 2.21 µM (≈ 6.49 µg/mL); in assay [37], 2.21 µM (≈ 6.49 µg/mL); in assay [38] it was 0.864 µM (≈ 2.54 µg/mL). In addition, the minimal inhibitory concentration (MIC) in assay [39] is 2.77 µM and 5.66 µM; in assay [40] it was 1.73 µM (≈ 5.07 µg/mL); in assay [41] it was 2.83 µM (≈ 8.3 µg/mL); in assay [42], 1.11 µM (≈ 3.25 µg/mL); in [43], 2 µM (≈ 5.87 µg/mL).
Turning to `CC[C@H](C)[C@H](NC(=O)[C@H](CCCN=C(N)N)NC(=O)[C@@H](N)Cc1c[nH]c2ccccc12)C(=O)N[C@@H](CCCN=C(N)N)C(=O)N[C@@H](CCCN=C(N)N)C(=O)N[C@@H](CCCN=C(N)N)C(=O)N1CCC[C@H]1C(=O)N1CCC[C@H]1C(=O)N[C@@H](CCCN=C(N)N)C(=O)N[C@@H](CC(C)C)C(=O)N1CCC[C@H]1C(=O)N[C@@H](CCCN=C(N)N)C(=O)N1CCC[C@H]1C(=O)N[C@@H](CCCN=C(N)N)C(=O)N[C@@H](Cc1c[nH]c2ccccc12)C(=O)N[C@@H](CCCN=C(N)N)C(=O)O` [WRIRRRPPRLPRPRWR], the MIC in assay [44] turned out to be 32 µM (≈ 72.2 µg/mL); in assay [45], 3 µM (≈ 6.76 µg/mL); in [46], 2 µM (≈ 4.51 µg/mL); in [33] it was 4 µM (≈ 9.02 µg/mL); in assay [34] it was 64 µM (≈ 144 µg/mL); in assay [39], 32 µM (≈ 72.2 µg/mL).

What is called MIC is the least concentration at which growth counts as inhibited. The low end stands for inhibition by little substance, the high end for a need for much substance.
